What all share (assay type): cell-based, Blumea balsamifera
Assay [1] concerns B. balsamifera somatic cells. Briefly: Effects of different 6-BA concentrations on induction of adventitious tetraploid buds from root segments. As to conditions: for Induction rate %: MS Medium with 0.05 mg/L NAA, 120 mg/L colchicine, root segment about 6.0 cm, 60 days. From the text: (§1) In the examples, effective root segment refers to uncontaminated root segment; induction rate refers to the percentage of the total number of adventitious tetraploid buds formed by induction accounting for the total number of diploid explants, and the calculation formula is: induction rate (%)=(total number of adventitious tetraploid buds/total number of diploid explants)×100%. Chimera rate (%)=(total number of adventitious buds of chimera/total number of adventitious buds)×100%.
MS Medium was used as a basal medium, which was supplemented with 0.05 mg/L NAA, 120 mg/L colchicine, 30 g/L sucrose, 6 g/L agar, and 6-BA of different concentrations (0, 1.0, 1.5, and 2.0 mg/L, respectively, 0 mg/L as the control group). Culture media were prepared individually, segmented root tissues (with a root segment length of about 6.0 cm) were inoculated, and contaminated root explants were excluded after 60 days. The number of tetraploid buds was counted, and the doubling efficiency was calculated.

The test system of assay [2] is B. balsamifera somatic cells. Briefly: Effects of different colchicine concentrations on induction of adventitious tetraploid buds from root segments. The conditions noted are these: for Induction rate %: MS Medium with 1.0 mg/L 6-BA, 0.05 mg/L NAA, root segment about 4.0 cm, 60 days.
From the text: as §1
MS Medium was used as a basal medium, which was supplemented with 1.0 mg/L 6-BA, 0.05 mg/L NAA, 30 g/L sucrose, 6 g/L agar, and colchicine of different concentrations (50, 70, 90, 120, and 150 mg/L, respectively). Culture media were prepared individually, and segmented root tissues (with a root segment length of about 4.0 cm) were inoculated. Chromosome ploidy identification was conducted on the formed adventitious buds after 60 days. The number of adventitious tetraploid buds was counted, and the doubling induction rate was calculated.

For assay [3], the system named is root explants of diploid B. balsamifera. Briefly: Effects of different NAA concentrations on induction of adventitious tetraploid buds from root segments. As to conditions: for Induction rate %: MS Medium with 1.0 mg/L 6-BA, 120 mg/L colchicine, root segment about 4.0 cm, 60 days.
From the text: as §1
MS Medium was used as a basal medium, which was supplemented with 1.0 mg/L 6-BA, 120 mg/L colchicine, 30 g/L sucrose, 6 g/L agar, and NAA of different concentrations (0, 0.025, 0.05, 0.075, and 0.1 mg/L, respectively, 0 mg/L as the control group). Culture media were prepared individually, and segmented root tissues (with a root segment length of about 4.0 cm) were inoculated. Chromosome ploidy identification was conducted on adventitious buds after 60 days. The number of adventitious tetraploid buds was counted, and the induction rate was calculated.

Consider `c1ccc(CNc2ncnc3nc[nH]c23)cc1` [6-BA, 6-benzylaminopurine], for which the “effect of inducing the doubling of the somatic cells of the root explants and dedifferentiating into adventitious tetraploid buds” value in assay [1] (6-BA 1.0 mg/L, compared with 0, 1.5 and 2.0 mg/L) is on record as “optimal”. The results for the “Induction rate %” value in assay [1] (6-BA 1.0 mg/L), in assay [1] (6-BA 1.5 mg/L) and in assay [1] (6-BA 2.0 mg/L) were 7.75%, 5.5% and 4.17%, respectively.
Turning to `COc1cc2c(c(OC)c1OC)-c1ccc(OC)c(=O)cc1[C@@H](NC(C)=O)CC2` [Colchicine, colchicine], the Induction rate % in assay [2] (colchicine 50 mg/L) was 0%; in assay [2] (colchicine 70 mg/L), 0%; in assay [2] (colchicine 90 mg/L), 2.08%; in assay [2] (colchicine 120 mg/L), 10.42%; in assay [2] (colchicine 150 mg/L), 4.17%. In addition, in assay [2] (colchicine 120 mg/L, compared with 50, 70, 90 and 150 mg/L), the “effect of inducing root explants of diploid B. balsamifera to form adventitious tetraploid buds” value is “optimal”.
For the compound `O=C(O)Cc1cccc2ccccc12` [NAA, 1-naphthaleneacetic acid], the Induction rate % in assay [3] (NAA 0.025 mg/L) was 2.08%; in assay [3] (NAA 0.05 mg/L), 10.42%; in assay [3] (NAA 0.075 mg/L), 4.17%; in assay [3] (NAA 0.1 mg/L), 3.13%. In addition, the doubling effect entry in assay [3] (NAA 0.05 mg/L, compared with 0, 0.025, 0.075 and 0.1 mg/L) is “optimal”.

The values are drawn from patent US11800842B2, “Method for obtaining adventitious tetraploid bud of Blumea balsamifera” (Tropical Crops Genetic Resources Institute, Chinese Academy …, priority 2021, dated 2023).
